“And” between values parts separate entries of the source, which are not always exact repeats. Equal entries are not always repeated.
How the values were obtained:
[1] = system: SW620: human colon adenocarcinoma; assay: Tumor assay of ACM, MTT method, SW620; type: cell-based; conditions: 4 days
Excerpt: (§1) Tumor Assay of ACM (Antrodia camphorata Mycelia Powder) A. Cell Line • Adherent Cell • MCF-7: human breast carcinoma • HT-29: human colon adenocarcinoma • KATO III: human stomach carcinoma • SW480: human colon adenocarcinoma • SW620: human colon adenocarcinoma • HepG2: human liver carcinoma • Suspension Cell • EL4: mice lymphoma B. Samples • Compound 1, Compound 3, ACM EtOH Extract, ACM H2O Extract C. Assay Method • Calculate ED50 (50% inhibition of effective dose) • Adherent cell: MTT (methyl thiazolyl tetrazolium) method for MCF-7, HT-29, KATO III, SW480, HepG2, cells are determined at 3 days. SW620 at 4 days • Suspension cell: Cell count method; EL4 cells count at 5 days D. Result Calculation: y=m Ln(x)+b
(§2) Use value of X (10, 30, 50 ppm) and Y to get correlation curve y=−0.2643 Ln(x)+1.5321 ED50=exp[0.97/2−1.5321/(−0.2643)] Sample Preparation and Sample Description A. ACM (Antrodia Camphorata Mycelia Powder) H2O Extract 1. Add 1 g of ACM into 40 ml of RO H2O in a 250 ml beaker, put the beaker in ultrasonic water bath for 20 min at room temperature 2. Stir at 45° C. water bath for 45 min 3. Place the beaker in ultrasonic water bath for another 20 min 4. Centrifuge the sample at 3000 rpm for 15 min 5. Collect supernatant and perform serial dilutions with media B. Determination of Sample Concentration 1. […] Read at OD545 on Elisa reader Cell Count Method (EL4 Cell Line) 1. […]

[2] = system: ICR derived male mice, carbon tetrachloride induced hepatic injury; assay: Hepatic Injury, Carbon Tetrachloride, in Mice; type: in vivo, mouse; conditions: for ALT, group mean (X) / AST, group mean (X) / ALT, individual animal / AST, individual animal: CCl4-challenged ICR mice; for ALT, group mean (X) / AST, group mean (X): mean of 5; for ALT, individual animal / AST, individual animal: single animals N 1-5, 24 h after CCl4; for ALT Dec. % / AST Dec. %: decrease relative to vehicle group, brackets = 30% or greater
Method: Nine groups of ICR derived male mice (weighing 22±2 g) of 5 each were used. Each animals was challenged with a single dose of carbon tetrachloride (CCl4, 0.1 ml/kg in 50% olive oil, PO). […] The animals were sacrificed 24 hours after CCl4. Alanine aminotransferase (ALT) and Aspartate aminotransferase (AST) levels were measured by optimized UV method using a HITACHI automatic analyzer (model 7050). A reduction of ALT or AST levels by 30 percent or greater (30%), relative to the vehicle group, indicating significant protection from hepatic injury.
The test substance of ACM at doses 300 and 1000 mg/kg and compound 3 of the invention at doses 30, 100 and 300 mg/kg were administered orally to test animals 0.5 hour before and 4, 8 hours after CCl4 challenge. […] The degree of hepatic injury was determined by increase in serum alanine aminotransferase (ALT) and aspartate aminotransferase (AST) levels relative to the vehicle treated animals. ACM at 1000 mg/kg×3 and compound 3 of the invention at 300 mg/kg×3 caused a significant reduction of ALT (46% and 41%) and AST (36% and 33%) relative to the vehicle treated animals.

[3] = system: LLC (Lewis lung carcinoma) cell line; assay: Cytotoxic assay, in vitro LLC tumor cell assay (SRB method)
EL4: mice lymphoma = assay: Tumor assay of ACM, cell count method, EL4; type: cell-based; conditions: 5 days
Excerpt: as §1, §2

[4] = system: HT-29: human colon adenocarcinoma; assay: Tumor assay of ACM, MTT method, HT-29; type: cell-based; conditions: 3 days
Excerpt: as §1, §2

[5] = system: MCF-7: human breast carcinoma; assay: Tumor assay of ACM, MTT method, MCF-7; type: cell-based; conditions: 3 days
Excerpt: as §1, §2

[6] = system: KATO III: human stomach carcinoma; assay: Tumor assay of ACM, MTT method, KATO III; type: cell-based; conditions: 3 days
Excerpt: as §1, §2

[7] = system: SW480: human colon adenocarcinoma; assay: Tumor assay of ACM, MTT method, SW480; type: cell-based; conditions: 3 days
Excerpt: as §1, §2

[8] = system: HepG2: human liver carcinoma; assay: Tumor assay of ACM, MTT method, HepG2; type: cell-based; conditions: 3 days
Excerpt: as §1, §2

CC(C)=CCOc1ccc(C2=C(CC(C)C)C(=O)N(O)C2=O)cc1 [Compound 3, 3-Isobutyl-4-[4-(3-methyl-2-butenyloxy)phenyl]-1H-pyrrol-1-ol-2,5-dione]
ED50 [1]: 27 ppm | reduction of ALT relative to the vehicle treated animals ([2]; CCl4 mice, 300 mg/kg×3 PO): 41% | reduction of AST relative to the vehicle treated animals ([2]; CCl4 mice, 300 mg/kg×3 PO): 33% | ALT, group mean (X) ([2]; PO 30 mg/kg × 3): 3360 U/L | AST, group mean (X) ([2]; PO 30 mg/kg × 3): 1962 U/L | ALT, individual animal ([2]; PO 30 mg/kg × 3): 4296 U/L and 3696 U/L and 2152 U/L and 2400 U/L and 4256 U/L | AST, individual animal ([2]; PO 30 mg/kg × 3): 2136 U/L and 2288 U/L and 1096 U/L and 1792 U/L and 2496 U/L | ALT Dec. % ([2]; PO 30 mg/kg × 3): −1% | AST Dec. % ([2]; PO 30 mg/kg × 3): −16% | ALT, group mean (X) ([2]; PO 100 mg/kg × 3): 3342 U/L | AST, group mean (X) ([2]; PO 100 mg/kg × 3): 1984 U/L | ALT, individual animal ([2]; PO 100 mg/kg × 3): 3200 U/L and 4576 U/L and 2512 U/L and 2728 U/L and 3696 U/L | AST, individual animal ([2]; PO 100 mg/kg × 3): 2256 U/L and 2976 U/L and 1536 U/L and 1552 U/L and 1600 U/L | ALT Dec. % ([2]; PO 100 mg/kg × 3): 0% | AST Dec. % ([2]; PO 100 mg/kg × 3): −17% | ALT, group mean (X) ([2]; PO 300 mg/kg × 3): 1966 U/L | AST, group mean (X) ([2]; PO 300 mg/kg × 3): 1130 U/L | ALT, individual animal ([2]; PO 300 mg/kg × 3): 1368 U/L and 1576 U/L and 1440 U/L and 2728 U/L and 2720 U/L | AST, individual animal ([2]; PO 300 mg/kg × 3): 776 U/L and 896 U/L (2×) and 1352 U/L and 1728 U/L | ALT Dec. % ([2]; PO 300 mg/kg × 3): (41) % | AST Dec. % ([2]; PO 300 mg/kg × 3): (33) % | cytotoxic activity (in words) [3]: cytotoxic | 50% Growth Inhibition (ED50) ([3]; SRB method): 7.5 µg/mL | ED50 (EL4: mice lymphoma): 2.6 ppm | ED50 [4]: 42 ppm | ED50 [5]: 0.02 ppm | ED50 [6]: 69 ppm | ED50 [7]: 20 ppm | ED50 [8]: 35 ppm

— patent US8648113B2, “Mixture and compounds from mycelia of Antrodia camphorata and use thereof” (Simpson Biotech Co., Ltd., priority 2004, dated 2014)
